In brackets after ≈: the same amount, converted by molar mass.

Test system in one data set: not given
Test: not given
Conditions: not given
On to `C[C@@H]1[C@H](O)[C@@H](C)/C=C/C=C/CC/C=C/C=C/C=C/C=C/[C@H](O[C@@H]2O[C@H](C)[C@@H](O)[C@H](NC3O[C@H](CO)[C@@H](O)[C@H](O)[C@H]3O)[C@@H]2O)C[C@@H]2O[C@](O)(C[C@@H](O)[C@H](O)CC[C@@H](O)C[C@@H](O)C[C@@H](O)CC(=O)O[C@H]1C)C[C@H](O)[C@H]2C(=O)[O-].[Na+]` (some centres unmarked), for which the “solubility / dispersion in water” value is “form true solutions free of colloids”. For `C[C@@H]1[C@H](O)[C@@H](C)/C=C/C=C/CC/C=C/C=C/C=C/C=C/[C@H](O[C@@H]2O[C@H](C)[C@@H](O)[C@H](NC3O[C@H](CO)[C@@H](O[C@H]4O[C@H](CO)[C@@H](O)[C@H](O)[C@H]4O)[C@H](O)[C@H]3O)[C@@H]2O)C[C@@H]2O[C@](O)(C[C@@H](O)[C@H](O)CC[C@@H](O)C[C@@H](O)C[C@@H](O)CC(=O)O[C@H]1C)C[C@H](O)[C@H]2C(=O)[O-].[Na+]` (some centres unmarked), the “solubility / dispersion in water” value is “form true solutions free of colloids”.

The test system of another data set is tested microorganisms. The experiment in a line: antimicrobial activity in liquid nutrient medium (serial dilution, turbidity). The class given is cell-based. To be noted: 48 h. The protocol: (b) determination of the antimicrobial activity of antibiotics and their derivatives in liquid nutrient medium-- table 2.
The antimicrobial activity of antibiotics and their derivatives in liquid nutrient medium has been determined by making serial dilutions of antibiotics in the manner described above and by mixing of 0.5 ml of antibiotic solution with 4.5 ml of medium inoculated with tested microorganisms and prepared after Sabouraud without agar and with the addition of tarchocilin in the amount of 25 mg per 1 l. Solutions were allowed to stand for 48 hours at the temperature of 32° C.
Minimum concentration that inhibits the microorganisms growth has been determined on the basis of turbidity determined by extinction growth at […]; results are compared in table 2.
One may read the MIC as the smallest concentration in the dilution series that meets the test's criterion for growth inhibition. Low values mean inhibition by little substance, high ones a need for much substance. For `COc1cc2c(c3oc(-c4ccccc4)cc(=O)c13)C=CC(C)(C)O2` [candidin], the MIC was 0.2 µg/mL (≈ 0.598 µM).

For `C[C@@H]1C/C=C/C=C/C=C/C=C/[C@H](O[C@@H]2O[C@H](C)[C@@H](O)[C@H](N)[C@@H]2O)C[C@@H]2O[C@](O)(C[C@@H](O)C[C@H]3O[C@@H]3/C=C/C(=O)O1)C[C@H](O)[C@H]2C(=O)O` [pimaricin], the lowest concentration to inhibit growth (MIC) was 2.5 µg/mL (≈ 3.76 µM).

In turn, `CC1C=CC=CCCC=CC=CC=CC=CC(OC2OC(C)C(O)C(N)C2O)CC2OC(O)(CC(O)C(O)CCC(O)CC(O)CC(O)CC(=O)OC(C)C(C)C1O)CC(O)C2C(=O)O` (centres unmarked) [nystatin A1] showed an MIC of 0.5 µg/mL (≈ 0.54 µM). `CC1C=CC=CC=CC=CC=CC=CC=CC(OC2OC(C)C(O)C(N)C2O)CC2OC(O)(CC(O)CC(O)C(O)CCC(O)CC(O)CC(=O)OC(C)C(C)C1O)CC(O)C2C(=O)O` (centres unmarked) [amphotericin B]: the MIC stood at 0.05 µg/mL (≈ 0.0541 µM).

The same data set, now with this note: liquid medium after Sabouraud without agar, 48 hours, 32° C, extinction at 660 mm.
With `C[C@@H]1[C@H](O)[C@@H](C)/C=C/C=C/CC/C=C/C=C/C=C/C=C/[C@H](O[C@@H]2O[C@H](C)[C@@H](O)[C@H](NC3O[C@H](CO)[C@@H](O)[C@H](O)[C@H]3O)[C@@H]2O)C[C@@H]2O[C@](O)(C[C@@H](O)[C@H](O)CC[C@@H](O)C[C@@H](O)C[C@@H](O)CC(=O)O[C@H]1C)C[C@H](O)[C@H]2C(=O)O` (some centres unmarked) [NGL nystatin A1], the MIC was 1.0 µg/mL (≈ 0.919 µM). Compound `C[C@@H]1[C@H](O)[C@@H](C)/C=C/C=C/C=C/C=C/C=C/C=C/C=C/[C@H](O[C@@H]2O[C@H](C)[C@@H](O)[C@H](N)[C@@H]2O)C[C@@H]2O[C@](O)(C[C@@H](O)[C@H](O)CC[C@@H](O)CC(=O)C[C@@H](O)CC(=O)O[C@H]1C)C[C@H](O)[C@H]2C(=O)O` [mycoheptin] had a minimal inhibitory concentration (MIC) of 2.5 µg/mL (≈ 2.71 µM).

The compound trichomycin yielded an MIC of 0.001 µg/mL. Compound candicidin showed an MIC of 0.001 µg/mL. Turning to `CCC[C@@H]1C/C=C/C=C/C=C/C=C/[C@H](O[C@@H]2O[C@H](C)[C@@H](O)[C@H](N)[C@@H]2O)C[C@@H]2O[C@](O)(C[C@@H](O)CCCC(=O)C[C@@H](O)[C@H](CC)C(=O)O1)C[C@H](O)[C@H]2C(=O)O` [rimocidin], the MIC is 2.5 µg/mL (≈ 3.26 µM).

The values are drawn from US4093796A, “Antibiotic derivatives of polyene macrolide group and method of obtaining the same” (Politechnika Gdanska, priority 1971, dated 1978).
